Earlier results as cited in patent US20260345480A1, “PHARMACEUTICAL DOSAGE FORMS FOR PULSATILE RELEASE” (CHIESI FARMACEUTICI S.P.A., priority 2023, published 2026).

Test system: animals
Settings: continuous infusion for periods longer than 24 hours

Cc1c(O)c(=O)ccn1C [deferiprone]
toxicity on continuous infusion (in words): potential toxicity of deferiprone observed in animals undergoing continuous infusion for periods longer than 24 hours
